# Experimental data as given in patent US7151105B2, “Inhibitors of Hepatitis C virus RNA-dependent RNA polymerase, and compositions and treatments using the same” (Agouron Pharmaceuticals, Inc., priority 2004, dated 2006).
# Molecular target: T1, Recombinant HCV polymerase (Hepatitis C virus genotype 1b, UniProt P26663)
# T1 construct: Recombinant HCV polymerase was tested for its ability to perform primer/template-directed transcription
# Assay: biochemical
# Conditions: inhibition of polymerase-directed transcription; 30 min at 30° C; 30 nM enzyme; cpm data in triplicate
# Procedure: The compounds described herein were tested for activity with HCV polymerase. Recombinant HCV polymerase was tested for its ability to perform primer/template-directed transcription in assays that contained 30 mM tris-HCl pH 7.2, 10 mM MgCl2, 20 mM NaCl, 1 mM Dithiothreitol (DTT), 0.05% Tween-20, 1% glycerol, 5 pmoles biotin-dG12 (primer), 0.5 pmoles poly(rC)300 (template), 1 μM GTP, 0.1–0.3 uCi α-^32P-GTP, and 2.5 pmoles (0.15 μg) HCV polymerase protein in a final volume of 75 μL. Reactions were initiated by addition of enzyme and incubated 30 minutes at 30° C. Reactions were stopped by addition of 33 mM EDTA, and polynucleotide products were collected by filtration through Diethylaminoethyl (DE) Filtermat papers (Wallac). Unincorporated triphosphate was removed by washing the filters with 5% dibasic sodium phosphate. The filters were counted in a Packard Tri-Lux Microbeta scintillation counter (Packard Bioscience, Meriden, Conn.). Compounds to be tested were added at various concentrations, e.g., 1 μm to 50 μm, from stocks in 10% DMSO-water (final DMSO is 1% in reaction).
# IC50 values were estimated from the primary cpm data (collected in triplicate) using the formula: cpm (I)=cpm (no inhibitor)(1−([I]/([I]+IC50))). […] A percent inhibition value is expressed for a compound where it was impractical to calculate an IC50 value with available data.
# T1 sequence (P26663 2420-3010): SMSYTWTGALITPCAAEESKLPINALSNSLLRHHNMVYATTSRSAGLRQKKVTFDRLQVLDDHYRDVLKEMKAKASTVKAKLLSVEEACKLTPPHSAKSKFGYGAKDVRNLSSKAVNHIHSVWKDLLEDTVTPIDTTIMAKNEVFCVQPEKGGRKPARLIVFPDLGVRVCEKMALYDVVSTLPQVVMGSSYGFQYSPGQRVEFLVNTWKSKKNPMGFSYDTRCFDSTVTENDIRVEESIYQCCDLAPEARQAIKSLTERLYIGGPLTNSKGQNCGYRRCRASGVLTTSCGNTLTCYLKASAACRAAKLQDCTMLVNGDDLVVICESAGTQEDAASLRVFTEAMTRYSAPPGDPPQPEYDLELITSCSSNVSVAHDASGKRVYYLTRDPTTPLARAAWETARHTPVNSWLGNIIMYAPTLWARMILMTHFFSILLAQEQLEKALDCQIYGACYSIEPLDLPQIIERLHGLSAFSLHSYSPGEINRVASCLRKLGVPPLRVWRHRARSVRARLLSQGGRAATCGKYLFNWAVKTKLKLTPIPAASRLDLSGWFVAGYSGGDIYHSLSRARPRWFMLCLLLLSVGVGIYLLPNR
row,Compound,IC50
1,"CCc1cc(CCC2(C3CCCC3)CC(O)=C(Cc3nc4nc(C)cc(C)n4n3)C(=O)O2)ccc1CN(C)C (racemic) [A(119), 6-cyclopentyl-6-(2-{4-[(dimethylamino)methyl]-3-ethylphenyl}ethyl)-3-[(5,7-dimethyl[1,2,4]triazolo[1,5-a]pyrimidin-2-yl)methyl]-4-hydroxy-5,6-dihydro-2H-pyran-2-one]",10 nM
2,"CCc1cc(CCC2(C3CCCC3)CC(O)=C(Cc3nc4nc(C)cc(C)n4n3)C(=O)O2)ccc1CN1CCOCC1 (racemic) [A(123), 6-cyclopentyl-3-[(5,7-dimethyl[1,2,4]triazolo[1,5-a]pyrimidin-2-yl)methyl]-6-{2-[3-ethyl-4-(morpholin-4-ylmethyl)phenyl]ethyl}-4-hydroxy-5,6-dihydro-2H-pyran-2-one]",39 nM
3,"CCc1cc(CCC2(C3CCCC3)CC(O)=C(Cc3nc4nc(C)cc(C)n4n3)C(=O)O2)ccc1CO (racemic) [B(33), 6-Cyclopentyl-3-[(5,7-dimethyl[1,2,4]triazolo[1,5-a]pyrimidin-2-yl)methyl]-6-{2-[3-ethyl-4-(hydroxymethyl)phenyl]ethyl}-4-hydroxy-5,6-dihydro-2H-pyran-2-one]",28 nM
4,"Cc1cc(C)n2nc(CC3=C(O)CC(CCc4ccc(C(C)(C)C#N)c(C(F)(F)F)c4)(C4CCCC4)OC3=O)nc2n1 (racemic) [Example B(28), 2-[4-(2-{2-cyclopentyl-5-[(5,7-dimethyl[1,2,4]triazolo[1,5-a]pyrimidin-2-yl)methyl]-4-hydroxy-6-oxo-3,6-dihydro-2H-pyran-2-yl}ethyl)-2-(trifluoromethyl)phenyl]-2-methylpropanenitrile]",5 nM
5,"Cc1cc(C)n2nc(CC3=C(O)CC(CCc4cnc(C(C)(C)C#N)c(Cl)c4)(C4CCCC4)OC3=O)nc2n1 (racemic) [Example B(39), 2-[3-chloro-5-(2-{2-cyclopentyl-5-[(5,7-dimethyl[1,2,4]triazolo[1,5-a]pyrimidin-2-yl)methyl]-4-hydroxy-6-oxo-3,6-dihydro-2H-pyran-2-yl}ethyl)pyridin-2-yl]-2-methylpropanenitrile]",12 nM
6,"CCOc1cc(O)c(CC)cc1CCC1(C2CCCC2)CC(O)=C(Cc2nc3nc(C)cc(C)n3n2)C(=O)O1 (single isomer, unassigned) [A(30), 6-Cyclopentyl-3-[(5,7-dimethyl[1,2,4]triazolo[1,5-a]pyrimidin-2-yl)methyl]-[-6–2-(2-ethoxy-5-ethyl-4-hydroxyphenyl)ethyl]-4-hydroxy-5,6-dihydro-2H-pyran-2-one]",4 nM
7,"CCOc1cc(O)c(CC)cc1CCC1(C2CCCC2)CC(O)=C(Cc2nc3nc(C)cc(C)n3n2)C(=O)O1 (single isomer, unassigned) [A(31), 6-Cyclopentyl-3-[(5,7-dimethyl[1,2,4]triazolo[1,5-a]pyrimidin-2-yl)methyl]-6-[2-(2-ethoxy-5-ethyl-4-hydroxyphenyl)ethyl]-4-hydroxy-5,6-dihydro-2H-pyran-2-one]",6 nM
8,"CCc1cc(CCC2(C3CCCC3)CC(O)=C(Cc3nc4nc(C)cc(C)n4n3)C(=O)O2)c(OC)cn1 (single isomer, unassigned) [A(38), 6-Cyclopentyl-3-[(5,7-dimethyl[1,2,4]triazolo[1,5-a]pyrimidin-2-yl)methyl]-6-[2-(2-ethyl-5-methoxypyridin-4-yl)ethyl]-4-hydroxy-5,6-dihydro-2H-pyran-2-one]",3 nM
9,"CCc1cc(CCC2(C3CCCC3)CC(O)=C(Cc3nc4nc(C)cc(C)n4n3)C(=O)O2)c(OC)cn1 (single isomer, unassigned) [A(39), 6-Cyclopentyl-3-[(5,7-dimethyl[1,2,4]triazolo[1,5-a]pyrimidin-2-yl)methyl]-6-[2-(2-ethyl-5-methoxypyridin-4-yl)ethyl]-4-hydroxy-5,6-dihydro-2H-pyran-2-one]",6 nM
10,"CCc1cc(CCC2(C3CCCC3)CC(O)=C(Cc3nc4nc(C)cc(C)n4n3)C(=O)O2)ccn1 (single isomer, unassigned) [A(44), 6-Cyclopentyl-3-[(5,7-dimethyl[1,2,4]triazolo[1,5-a]pyrimidin-2-yl)methyl]-6-[2-(2-ethylpyridin-4-yl)ethyl]-4-hydroxy-5,6-dihydro-2H-pyran-2-one]",7 nM
11,"CCc1cc(CCC2(C3CCCC3)CC(O)=C(Cc3nc4nc(C)cc(C)n4n3)C(=O)O2)ccn1 (single isomer, unassigned) [A(45), 6-Cyclopentyl-3-[(5,7-dimethyl[1,2,4]triazolo[1,5-a]pyrimidin-2-yl)methyl]-6-[2-(2-ethylpyridin-4-yl)ethyl]-4-hydroxy-5,6-dihydro-2H-pyran-2-one]",14 nM
12,"CCOc1cnc(CC)cc1CCC1(C2CCCC2)CC(O)=C(Cc2nc3nc(C)cc(C)n3n2)C(=O)O1 (single isomer, unassigned) [A(51), 6-Cyclopentyl-3-[(5,7-dimethyl[1,2,4]triazolo[1,5-a]pyrimidin-2-yl)methyl]-6-[2-(5-ethoxy-2-ethylpyridin-4-yl)ethyl]-4-hydroxy-5,6-dihydro-2H-pyran-2-one]",3 nM
13,"CCOc1cnc(CC)cc1CCC1(C2CCCC2)CC(O)=C(Cc2nc3nc(C)cc(C)n3n2)C(=O)O1 (single isomer, unassigned) [A(52), 6-cyclopentyl-3-[(5,7-dimethyl[1,2,4]triazolo[1,5-a]pyrimidin-2-yl)methyl]-6-[2-(5-ethoxy-2-ethylpyridin-4-yl)ethyl]-4-hydroxy-5,6-dihydro-2H-pyran-2-one]",3 nM
14,"CCCOc1cnc(CC)cc1CCC1(C2CCCC2)CC(O)=C(Cc2nc3nc(C)cc(C)n3n2)C(=O)O1 (single isomer, unassigned) [A(53), 6-Cyclopentyl-3-[(5,7-dimethyl[1,2,4]triazolo[1,5-a]pyrimidin-2-yl)methyl]-6-[2-(2-ethyl-5-propoxypyridin-4-yl)ethyl]-4-hydroxy-5,6-dihydro-2H-pyran-2-one]",3 nM
15,"CCCOc1cnc(CC)cc1CCC1(C2CCCC2)CC(O)=C(Cc2nc3nc(C)cc(C)n3n2)C(=O)O1 (single isomer, unassigned) [A(54), 6-Cyclopentyl-3-[(5,7-dimethyl[1,2,4]triazolo[1,5-a]pyrimidin-2-yl)methyl]-6-[2-(2-ethyl-5-propoxypyridin-4-yl)ethyl]-4-hydroxy-5,6-dihydro-2H-pyran-2-one]",3 nM
16,"CCOc1cnc(CC)cc1CCC1(C2CCCC2)CC(O)=C(Cc2nc3ncc(C)cn3n2)C(=O)O1 (single isomer, unassigned) [A(55), 6-Cyclopentyl-6-[2-(5-ethoxy-2-ethylpyridin-4-yl)ethyl]-4-hydroxy-3-[(6-methyl[1,2,4]triazolo[1,5-a]pyrimidin-2-yl)methyl]-5,6-dihydro-2H-pyran-2-one]",2 nM
17,"CCOc1cnc(CC)cc1CCC1(C2CCCC2)CC(O)=C(Cc2nc3ncc(C)cn3n2)C(=O)O1 (single isomer, unassigned) [A(56), 6-Cyclopentyl-6-[2-(5-ethoxy-2-ethylpyridin-4-yl)ethyl]-4-hydroxy-3-[(6-methyl[1,2,4]triazolo[1,5-a]pyrimidin-2-yl)methyl]-5,6-dihydro-2H-pyran-2-one]",4 nM
18,"CCOc1cc(O)c(CC)cc1CCC1(C2CCCC2)CC(O)=C(Cc2nc3ncc(C)cn3n2)C(=O)O1 (single isomer, unassigned) [A(57), 6-Cyclopentyl-6-[2-(2-ethoxy-5-ethyl-4-hydroxyphenyl)ethyl]-4-hydroxy-3-[(6-methyl[1,2,4]triazolo[1,5-a]pyrimidin-2-yl)methyl]-5,6-dihydro-2H-pyran-2-one]",3 nM
19,"CCOc1cc(O)c(CC)cc1CCC1(C2CCCC2)CC(O)=C(Cc2nc3ncc(C)cn3n2)C(=O)O1 (single isomer, unassigned) [A(58), 6-Cyclopentyl-6-[2-(2-ethoxy-5-ethyl-4-hydroxyphenyl)ethyl]-4-hydroxy-3-[(6-methyl[1,2,4]triazolo[1,5-a]pyrimidin-2-yl)methyl]-5,6-dihydro-2H-pyran-2-one]",1 nM
20,"Cc1cc(C)n2nc(CC3=C(O)CC(CCc4ccc(O)c(CC(F)(F)F)c4)(C4CCCC4)OC3=O)nc2n1 (single isomer, unassigned) [A(74), 6-Cyclopentyl-3-[(5,7-dimethyl[1,2,4]triazolo[1,5-a]pyrimidin-2-yl)methyl]-4-hydroxy-6-{2-[4-hydroxy-3-(2,2,2-trifluoroethyl)phenyl]ethyl}-5,6-dihydro-2H-pyran-2-one]",3 nM
21,"Cc1cc(C)n2nc(CC3=C(O)CC(CCc4ccc(O)c(CC(F)(F)F)c4)(C4CCCC4)OC3=O)nc2n1 (single isomer, unassigned) [A(75), 6-cyclopentyl-3-[(5,7-dimethyl[1,2,4]triazolo[1,5-a]pyrimidin-2-yl)methyl]-4-hydroxy-6-{2-[4-hydroxy-3-(2,2,2-trifluoroethyl)phenyl]ethyl}-5,6-dihydro-2H-pyran-2-one]",5 nM
22,"CCC(C#N)(CC)c1ccc(CCC2(C3CCCC3)CC(O)=C(Cc3nc4nc(C)cc(C)n4n3)C(=O)O2)cc1C(F)(F)F (single isomer, unassigned) [A(154), 2-[4-(2-{2-Cyclopentyl-5-[(5,7-dimethyl[1,2,4]triazolo[1,5-a]pyrimidin-2-yl)methyl]-4-hydroxy-6-oxo-3,6-dihydro-2H-pyran-2-yl}ethyl)-2-(trifluoromethyl)phenyl]-2-ethylbutanenitrile]",11 nM
